Laboratory results as given in patent US8481544B2, “Antibacterial compositions” (Biota Europe Limited, priority 2006, dated 2013).
≈ marks a conversion by molar mass, not a printed value.

test system: Enterococcus faecalis ATCC 29212; experiment: MIC against Enterococcus faecalis ATCC 29212; format: cell-based; details: ATCC29212; Enterococcus faecalis ATCC 29212; read-out: MICs against Enterococcus faecalis, Activity
Method: Institute. Methods for Dilution Antimicrobial Susceptibility Tests for Bacteria That Grow Aerobically; Approved Standard—Seventh Edition. Document M7-A7. CLSI, Wayne, Pa., 2006; Clinical Laboratories and Standards Institute. Methods for Antimicrobial Susceptibility Testing of Anaerobic Bacteria; Approved Standard—Sixth Edition. Document M11-A6. CLSI, Wayne, Pa., 2004).
Compounds of this invention were tested for antimicrobial activity by susceptibility testing in liquid or on solid media. MICs for compounds against each strain were determined by the broth microdilution or agar dilution method according to the guidelines of the Clinical Laboratories and Standards Institute, formerly the National Committee for Clinical Laboratory Standards (Clinical Laboratories and Standards Institute. Methods for Dilution Antimicrobial Susceptibility Tests for Bacteria That Grow Aerobically; Approved Standard—Seventh Edition. Document M7-A7. CLSI, Wayne, Pa., 2006; Clinical Laboratories and Standards Institute. Methods for Antimicrobial Susceptibility Testing of Anaerobic Bacteria; Approved Standard—Sixth Edition. Document M11-A6. CLSI, Wayne, Pa., 2004).

`CCNC(=O)Nc1nc2cc(Br)cc(-c3ccc(N)nc3)c2s1` [Example 1, 1-[7-(6-Amino-pyridin-3-yl)-5-bromo-benzothiazol-2-yl]-3-ethyl-urea] and `CCNC(=O)Nc1nc2cc(Br)cc(-c3cccnc3)c2s1` [Example 2, 1-(5-Bromo-7-pyridin-3-yl-benzothiazol-2-yl)-3-ethyl-urea] fall in the same range of MIC: 2 to 16 µg/mL (≈ 5.1 to 40.8 µM) for the first, 2 to 16 µg/mL (≈ 5.3 to 42.4 µM) for the second.

First: CCNC(=O)Nc1nc2cc(Br)cc(-c3cnn(C)c3)c2s1 [Example 5, 1-[5-Bromo-7-(1-methyl-1H-pyrazol-4-yl)-benzothiazol-2-yl]-3-ethyl-urea]
Second: CCNC(=O)Nc1nc2cc(-c3cnn(C)c3)cc(Br)c2s1 [Example 6, 1-[7-Bromo-5-(1-methyl-1H-pyrazol-4-yl)-benzothiazol-2-yl]-3-ethyl-urea]
The MIC of the first is higher: 2 to 16 µg/mL (≈ 5.26 to 42.1 µM) for the first, 0.25 to 1 µg/mL (≈ 0.657 to 2.63 µM) for the second.

`CCNC(=O)Nc1nc2cc(-c3cnn(C)c3)cc(-c3cnn(C)c3)c2s1` [Example 7, 1-[5,7-Bis-(1-methyl-1H-pyrazol-4-yl)-benzothiazol-2-yl]-3-ethyl-urea] and `CCNC(=O)Nc1nc2cc(-c3cccnc3)cc(-c3cccn3C)c2s1` [Example 11, 1-Ethyl-3-[7-(1-methyl-1H-pyrrol-2-yl)-5-pyridin-3-yl-benzothiazol-2-yl]-urea] fall in the same range of MIC: 0.25 to 1 µg/mL (≈ 0.655 to 2.62 µM) for the first, 0.25 to 1 µg/mL (≈ 0.662 to 2.65 µM) for the second.

`CCNC(=O)Nc1nc2cc(I)cc(-c3cccnc3)c2s1` [Example 8, 1-Ethyl-3-(5-iodo-7-pyridin-3-yl-benzothiazol-2-yl)-urea] and `CCNC(=O)Nc1nc2cc(-n3cccn3)cc(-c3cccnc3)c2s1` [Example 12, 1-Ethyl-3-(5-pyrazol-1-yl-7-pyridin-3-yl-benzothiazol-2-yl)-urea] fall in the same range of MIC: 2 to 16 µg/mL (≈ 4.71 to 37.7 µM) for the first, 2 to 16 µg/mL (≈ 5.49 to 43.9 µM) for the second.

Compared with `CCNC(=O)Nc1nc2cc(-c3cnccn3)cc(-c3cnccn3)c2s1` [Example 10, 1-(5,7-Di-pyrazin-2-yl-benzothiazol-2-yl)-3-ethyl-urea], `CCNC(=O)Nc1nc2cc(-c3cnccn3)cc(-c3cccnc3)c2s1` [Example 43, 1-Ethyl-3-(5-pyrazin-2-yl-7-pyridin-3-yl-benzothiazol-2-yl)-urea] is higher in MIC: < 0.25 µg/mL for the first, 0.25 to 1 µg/mL (≈ 0.664 to 2.66 µM) for the second.

`CCNC(=O)Nc1nc2cc(-c3cncnc3)cc(-c3cccnc3)c2s1` [Example 13, 1-Ethyl-3-(7-pyridin-3-yl-5-pyrimidin-5-yl-benzothiazol-2-yl)-urea] and `CCNC(=O)Nc1nc2cc(-c3cnc(N)nc3)cc(-c3cccnc3)c2s1` [Example 14, 1-[5-(2-Amino-pyrimidin-5-yl)-7-pyridin-3-yl-benzothiazol-2-yl]-3-ethyl-urea] fall in the same range of MIC: 0.25 to 1 µg/mL (≈ 0.664 to 2.66 µM) for the first, 0.25 to 1 µg/mL (≈ 0.639 to 2.55 µM) for the second.

`CCNC(=O)Nc1nc2cc(-c3cnc(OC)nc3)cc(-c3cccnc3)c2s1` [Example 15, 1-Ethyl-3-[5-(2-methoxy-pyrimidin-5-yl)-7-pyridin-3-yl-benzothiazol-2-yl]-urea] and `CCNC(=O)Nc1nc2cc(-c3cnc(N(C)C)nc3)cc(-c3cccnc3)c2s1` [Example 25, 1-[5-(2-Dimethylamino-pyrimidin-5-yl)-7-pyridin-3-yl-benzothiazol-2-yl]-3-ethyl-urea] fall in the same range of MIC: 0.25 to 1 µg/mL (≈ 0.615 to 2.46 µM) for the first, 0.25 to 1 µg/mL (≈ 0.596 to 2.38 µM) for the second.

Compared with `CCNC(=O)Nc1nc2cc(-c3ccc(O)nc3)cc(-c3cccnc3)c2s1` [Example 16, 1-Ethyl-3-[5-(6-hydroxy-pyridin-3-yl)-7-pyridin-3-yl-benzothiazol-2-yl]-urea], `CCNC(=O)Nc1nc2cc(-c3ccc(N)nc3)cc(-c3cccnc3)c2s1` [Example 17, 1-[5-(6-Amino-pyridin-3-yl)-7-pyridin-3-yl-benzothiazol-2-yl]-3-ethyl-urea] is lower in MIC: 2 to 16 µg/mL (≈ 5.11 to 40.9 µM) for the first, 0.25 to 1 µg/mL (≈ 0.64 to 2.56 µM) for the second.

First: CCNC(=O)Nc1nc2cc(-c3ccc(CO)cc3)cc(-c3cccnc3)c2s1 [Example 18, 1-Ethyl-3-[5-(4-hydroxymethyl-phenyl)-7-pyridin-3-yl-benzothiazol-2-yl]-urea]
Second: CCNC(=O)Nc1nc2cc(-c3ccc(CO)nc3)cc(-c3cccnc3)c2s1 [Example 19, 1-Ethyl-3-[5-(6-hydroxymethyl-pyridin-3-yl)-7-pyridin-3-yl-benzothiazol-2-yl]-urea]
The MIC of the first is higher: 2 to 16 µg/mL (≈ 4.94 to 39.6 µM) for the first, 0.25 to 1 µg/mL (≈ 0.617 to 2.47 µM) for the second.

`CCNC(=O)Nc1nc2cc(-c3ccc(NC(C)=O)nc3)cc(-c3cccnc3)c2s1` [Example 20, N-{5-[2-(3-Ethyl-ureido)-7-pyridin-3-yl-benzothiazol-5-yl]-pyridin-2-yl}-acetamide] and `CCNC(=O)Nc1nc2cc(-c3ccc(C(=O)OC)nc3)cc(-c3cccnc3)c2s1` [Example 26, 5-[2-(3-Ethyl-ureido)-7-pyridin-3-yl-benzothiazol-5-yl]-pyridine-2-carboxylic acid methyl ester] fall in the same range of MIC: 0.25 to 1 µg/mL (≈ 0.578 to 2.31 µM) for the first, 0.25 to 1 µg/mL (≈ 0.577 to 2.31 µM) for the second.

First: CCNC(=O)Nc1nc2cc(-c3ccc(CN4CCOCC4)cc3)cc(-c3cccnc3)c2s1 [Example 21, 1-Ethyl-3-[5-(4-morpholin-4-ylmethyl-phenyl)-7-pyridin-3-yl-benzothiazol-2-yl]-urea]
Second: CCNC(=O)Nc1nc2cc(-c3ccncc3)cc(-c3cccnc3)c2s1 [Example 30, 1-Ethyl-3-(5-pyridin-4-yl-7-pyridin-3-yl-benzothiazol-2-yl)-urea]
The MIC of the first is higher: 2 to 16 µg/mL (≈ 4.22 to 33.8 µM) for the first, 0.25 to 1 µg/mL (≈ 0.666 to 2.66 µM) for the second.

First: CCNC(=O)Nc1nc2cc(-c3ccc4nccn4c3)cc(-c3cccnc3)c2s1 [Example 22, 1-Ethyl-3-(5-imidazo[1,2-a]pyridin-6-yl-7-pyridin-3-yl-benzothiazol-2-yl)-urea]
Second: CCNC(=O)Nc1nc2cc(-c3ccc(C#N)nc3)cc(-c3cccnc3)c2s1 [Example 27, 1-[5-(6-Cyano-pyridin-3-yl)-7-pyridin-3-yl-benzothiazol-2-yl]-3-ethyl-urea]
The MIC of the first is higher: 0.25 to 1 µg/mL (≈ 0.603 to 2.41 µM) for the first, < 0.25 µg/mL for the second.

First: CCNC(=O)Nc1nc2cc(-c3ccc(N4CCN(C)CC4)nc3)cc(-c3cccnc3)c2s1 [Example 23, 1-Ethyl-3-{5-[6-(4-methyl-piperazin-1-yl)-pyridin-3-yl]-7-pyridin-3-yl-benzothiazol-2-yl}-urea]
Second: CCNC(=O)Nc1nc2cc(-c3ccc(OC)nc3)cc(-c3cccnc3)c2s1 [Example 29, 1-Ethyl-3-[5-(6-methoxy-pyridin-3-yl)-7-pyridin-3-yl-benzothiazol-2-yl]-urea]
The MIC of the first is higher: 2 to 16 µg/mL (≈ 4.22 to 33.8 µM) for the first, 0.25 to 1 µg/mL (≈ 0.617 to 2.47 µM) for the second.

`CCNC(=O)Nc1nc2cc(-c3cncc(C#N)c3)cc(-c3cccnc3)c2s1` [Example 24, 1-[5-(5-Cyano-pyridin-3-yl)-7-pyridin-3-yl-benzothiazol-2-yl]-3-ethyl-urea] and `CCNC(=O)Nc1nc2cc(-c3cncc(OC)c3)cc(-c3cccnc3)c2s1` [Example 31, 1-Ethyl-3-[5-(5-methoxy-pyridin-3-yl)-7-pyridin-3-yl-benzothiazol-2-yl]-urea] fall in the same range of MIC: 0.25 to 1 µg/mL (≈ 0.624 to 2.5 µM) for the first, 0.25 to 1 µg/mL (≈ 0.617 to 2.47 µM) for the second.

`CCNC(=O)Nc1nc2cc(-c3cccc(F)c3)cc(-c3cccnc3)c2s1` [Example 28, 1-Ethyl-3-[5-(3-fluoro-phenyl)-7-pyridin-3-yl-benzothiazol-2-yl]-urea] and `CCNC(=O)Nc1nc2cc(-c3cccnc3)cc(-c3cnc(N)nc3)c2s1` [Example 42, 1-[7-(2-Amino-pyrimidin-5-yl)-5-pyridin-3-yl-benzothiazol-2-yl]-3-ethyl-urea] fall in the same range of MIC: 0.25 to 1 µg/mL (≈ 0.637 to 2.55 µM) for the first, 0.25 to 1 µg/mL (≈ 0.639 to 2.55 µM) for the second.

First: CCNC(=O)Nc1nc2cc(-c3cnc(C#N)nc3)cc(-c3cccnc3)c2s1 [Example 32, 1-[5-(2-Cyano-pyrimidin-5-yl)-7-pyridin-3-yl-benzothiazol-2-yl]-3-ethyl-urea]
Second: CCNC(=O)Nc1nc2cc(-c3cncc(N)n3)cc(-c3cccnc3)c2s1 [Example 45, 1-[5-(6-Amino-pyrazin-2-yl)-7-pyridin-3-yl-benzothiazol-2-yl]-3-ethyl-urea]
The MIC of the first is higher: 2 to 16 µg/mL (≈ 4.98 to 39.9 µM) for the first, 0.25 to 1 µg/mL (≈ 0.639 to 2.55 µM) for the second.

`CCNC(=O)Nc1nc2cc(-c3ccc(C#N)nc3)cc(-c3ccccn3)c2s1` [Example 33, 1-[5-(6-Cyano-pyridin-3-yl)-7-pyridin-2-yl-benzothiazol-2-yl]-3-ethyl-urea] and `CCNC(=O)Nc1nc2cc(-c3ccc(C)nc3)cc(-c3ccccn3)c2s1` [Example 41, 1-Ethyl-3-[5-(6-methyl-pyridin-3-yl)-7-pyridin-2-yl-benzothiazol-2-yl]-urea] cannot be ordered by MIC: < 0.25 µg/mL for the first, < 0.25 µg/mL for the second.

Compared with `CCNC(=O)Nc1nc2cc(-c3ccc(CO)nc3)cc(-c3ccccn3)c2s1` [Example 34, 1-Ethyl-3-[5-(6-hydroxymethyl-pyridin-3-yl)-7-pyridin-2-yl-benzothiazol-2-yl]-urea], `CCNC(=O)Nc1nc2cc(-c3ccc(N(C)C)nc3)cc(-c3ccccn3)c2s1` [Example 38, 1-[5-(6-Dimethylamino-pyridin-3-yl)-7-pyridin-2-yl-benzothiazol-2-yl]-3-ethyl-urea] is higher in MIC: < 0.25 µg/mL for the first, 0.25 to 1 µg/mL (≈ 0.597 to 2.39 µM) for the second.

`CCNC(=O)Nc1nc2cc(-c3cncnc3)cc(-c3ccccn3)c2s1` [Example 35, 1-Ethyl-3-(7-pyridin-2-yl-5-pyrimidin-5-yl-benzothiazol-2-yl)-urea] and `CCNC(=O)Nc1nc2cc(-c3cncc(C)c3)cc(-c3ccccn3)c2s1` [Example 36, 1-Ethyl-3-[5-(5-methyl-pyridin-3-yl)-7-pyridin-2-yl-benzothiazol-2-yl]-urea] cannot be ordered by MIC: < 0.25 µg/mL for the first, < 0.25 µg/mL for the second.

`CCNC(=O)Nc1nc2cc(-c3ccoc3)cc(-c3ccccn3)c2s1` [Example 37, 1-Ethyl-3-(5-furan-3-yl-7-pyridin-2-yl-benzothiazol-2-yl)-urea] and `CCNC(=O)Nc1nc2cc(-c3ccnc(OC)c3)cc(-c3ccccn3)c2s1` [Example 40, 1-Ethyl-3-[5-(2-methoxy-pyridin-4-yl)-7-pyridin-2-yl-benzothiazol-2-yl]-urea] fall in the same range of MIC: 0.25 to 1 µg/mL (≈ 0.686 to 2.74 µM) for the first, 0.25 to 1 µg/mL (≈ 0.617 to 2.47 µM) for the second.

Compared with `CCNC(=O)Nc1nc2cc(-c3cnccc3C)cc(-c3ccccn3)c2s1` [Example 39, 1-Ethyl-3-[5-(4-methyl-pyridin-3-yl)-7-pyridin-2-yl-benzothiazol-2-yl]-urea], `CCNC(=O)Nc1nc2cc(-c3cnccc3N)cc(-c3cccnc3)c2s1` [Example 44, 1-[5-(4-Amino-pyridin-3-yl)-7-pyridin-3-yl-benzothiazol-2-yl]-3-ethyl-urea] is higher in MIC: 0.25 to 1 µg/mL (≈ 0.642 to 2.57 µM) for the first, 2 to 16 µg/mL (≈ 5.12 to 41 µM) for the second.
